Read-outs that look alike come from different tables or passages of the source. Where no end group is shown, it is not given here.
Legend:
E. coli TOP10 = type: cell-based
Protocol: A range of synthetic antimicrobial polypeptides were expressed in E. coli TOP10 (Invitrogen) using arabinose as inducer, as disclosed in Example 1 of International patent application WO 00/73433 (with minor modifications). […] Briefly, fresh overnight cultures grown in RM medium containing 0.2% glucose and ampicillin (100 μg/ml) were diluted 300-fold into 150 microliter of RM containing 0.2% glycerol and ampicillin (100 μg/ml) and different concentrations of arabinose (0, 0.01% or 0.1%) in a microtiter plate and incubated at 37 degrees Celsius with vigorous shaking. The growth curve was monitored by measuring OD450 using a Bioscreen C Microbiology reader (Thermo Electron Corporation) at intervals of 30 minutes for 14 hours (see Invitrogen protocol of the pBAD/gill A, B and C vectors catalogue nos. V450-01 for buffer and media composition). The percentage of growth inhibition was calculated as the end point OD measurement of each sample divided by the end point OD measurement obtained from cells containing the control vector and multiplied by 100. The formula is the following: [formula] where “blank OD” corresponds to the OD of an empty well.

[1] = system: Pseudomonas aeroginosa (ATCC 27853); test: Killing kinetics in MHB (viable cells, CFU/ml); type: cell-based; conditions: 4×MIC concentration
Protocol: The rate of killing of Gen2 was determined in MHB using Pseudomonas aeroginosa (ATCC 27853) as the test organism. The bacteria were incubated with Gen2 (at 4×MIC concentration). At different time-points, several dilutions of the preparation were plated and an estimate of viable cells was determined (CFU/ml). The results in Table 2 indicate that Gen2 rapidly kills the bacteria, with a near 3-log reduction in CFU within 30 minutes.

Bacillus subtilis = test: Antimicrobial activity by radial diffusion assay (MEC); type: cell-based
Protocol: (§1) A modified version of a previously published protocol has been applied in the detection of antimicrobial activity (Lehrer et al., (1991) Ultra sensitive assays for endogenous antimicrobial polypeptides J Immunol Methods 137: 167-173). Target bacteria (10^6 colony forming units (CFU)) were added to 10 ml of underlay agarose (1% low electro-endosmosis agarose, 0.03% Trypticase soy broth, 10 mM sodium phosphate, pH 7.4, 37 degrees Celsius). Suspension was solidified on an INTEGRID Petri Dish (Becton Dickinson Labware). A 3 mm Gel Puncher was used to make holes in the underlay agarose (Amersham Pharmacia Biotech, Sweden). Samples were added to the holes and incubated at 37 degrees Celsius, 3 hours. An overlay was poured on top and the plate was incubated overnight (LB media, 7.5% Agar). Antimicrobial activity was seen as bacterial clearing zones around the wells. Living cells was counterstained by adding 10 ml, 0.2 mM MTT (3-(4,5-Dimethylthiazol-2-yl)-2,5-diphenyltetrazolium bromide Thiazolyl blue).

Eschericia coli = test: as above; type: cell-based
Protocol: as §1

[2] = system: Pseudomonas aeroginosa (ATCC 27853)
Source text: The selected test organism was Pseudomonas aeroginosa (ATCC 27853).

[3] = 0.01% arabinose, end point OD450 after 14 hours, 37 degrees Celsius
[4] = 0.1% arabinose, end point OD450 after 14 hours, 37 degrees Celsius

Sequence	Growth inhibition using 0.01% arabinose (%) (E. coli TOP10; [3])	Growth inhibition using 0.1% arabinose (%) (E. coli TOP10; [4])	also measured
GILSKLKKAIKRILQDVLRWL (Synthetic antimicrobial peptide) [SEQ ID NO:43]	82%	99%	–
GLLNKLKRALKKVVKHVR (Synthetic antimicrobial peptide) [SEQ ID NO:33]	84%	94%	–
GLWNMLKKKLKKIAQGIR (Synthetic antimicrobial peptide) [SEQ ID NO:15]	73%	88%	–
GLLSKLGKAVKNILEDVV (Synthetic antimicrobial peptide) [SEQ ID NO:28]	98%	100%	–
GLLSKLKKAAKKALKHVL [Gen2, GLLSKLKKAAKKALKHVL]	–	–	viable cells ([1]; 0 hours): 100.000 CFU/ml; viable cells ([1]; 0.5 hours): 115 CFU/ml; viable cells ([1]; 1.5 hours): 60 CFU/ml; viable cells ([1]; 24 hours): <20 CFU/ml; reduction in CFU ([1]; within 30 minutes): ~3 log; antimicrobial activity (MEC) (Bacillus subtilis): < 64 µg/mL; antimicrobial activity (MEC) (Eschericia coli): < 64 µg/mL; Growth inhibition using 0.01% arabinose (%) (E. coli TOP10; TOP10, 14 h): 51%; Growth inhibition using 0.1% arabinose (%) (E. coli TOP10; TOP10, 14 h): 48%; MIC ([2]; ATCC 27853): 15 µg/mL; MIC ([2]; ATCC 27853, pH 5.5): 16 µg/mL; MIC ([2]; ATCC 27853, pH 6.5): 16 µg/mL
GLFSIIMRAVKKVWQRVR (Synthetic antimicrobial peptide) [SEQ ID NO:9]	97%	100%	–
GLWRKLKKALKRAVQGVR (Synthetic antimicrobial peptide) [SEQ ID NO:5]	91%	96%	–
GLLSMLGKAVKRAVQHVL (Synthetic antimicrobial peptide) [SEQ ID NO:26]	97%	100%	–
GLLSILKRKSKRILKHIL (Synthetic antimicrobial peptide) [SEQ ID NO:24]	88%	96%	–
GILSKLKKKAKNAVKMFCRWL (Synthetic antimicrobial peptide) [SEQ ID NO:46]	92%	96%	–
GMLIKLEMEAKKVVKNVL (Synthetic antimicrobial peptide) [SEQ ID NO:17]	96%	99%	–
GLWRKLRRKAKKVLQHIL (Synthetic antimicrobial peptide) [SEQ ID NO:13]	94%	100%	–
GLLSKLKKTVKRVVKHVR (Synthetic antimicrobial peptide) [SEQ ID NO:19]	84%	99%	–
GLFSILKREIKRTFSNFYRWL (GLFSILKREIKRTFSMFYRWL; Synthetic antimicrobial peptide) [SEQ ID NO:41]	86%	99%	–
GLFRKLRKKVKKVLKHVL (Synthetic antimicrobial peptide) [SEQ ID NO:23]	91%	98%	–
GLLGKIRKEGRNFWRVFRRWL (GLLGKIRKEGRMFWRVFRRWL; Synthetic antimicrobial peptide) [SEQ ID NO:38]	86%	92%	–
GWFNKLKTKIKKTLKHVL (Synthetic antimicrobial peptide) [SEQ ID NO:11]	72%	90%	–
GILSMLERRWSMYCSIFCRWL (Synthetic antimicrobial peptide) [SEQ ID NO:45]	98%	100%	–
GLLSKLKRKIKKAVKHIL (Synthetic antimicrobial peptide) [SEQ ID NO:30]	82%	95%	–
GLLEKLRKALKRILQHVL (Synthetic antimicrobial peptide) [SEQ ID NO:12]	91%	97%	–
GLVTLLKKAMKNALEDVL (Synthetic antimicrobial peptide) [SEQ ID NO:21]	98%	99%	–
GLLNKIKKTIKRAVQHVL (Synthetic antimicrobial peptide) [SEQ ID NO:18]	76%	92%	–
GLLRKLRKEVKKVLSIFFRWL (Synthetic antimicrobial peptide) [SEQ ID NO:39]	97%	99%	–
GLLKTIRKKIKRVLKHVR (Synthetic antimicrobial peptide) [SEQ ID NO:4]	96%	99%	–
GLWSSIKKEAKHALKHIL (Synthetic antimicrobial peptide) [SEQ ID NO:29]	55%	81%	–
GILNKLRKKLKRVLQRIL (Synthetic antimicrobial peptide) [SEQ ID NO:27]	84%	97%	–

Reference: US20070259087A1, “Antimicrobial Peptides” (Novozymes A/S, priority 2003, published 2007)
